From PubChem BioAssay AID248 (DTP/NCI, 2004)
“And” between values parts separate entries of the source, which are not always exact repeats. Identical values can stand only once. Toxic doses and inconclusive results are not listed. No stated cut-off is given here; in the data, active means T/C of 150% or more; inactive means T/C below 125%.

System: L1210 leukemia ip in BDF1 mice, survival T/C
Assay: NCI In Vivo Anticancer Drug Screen. Data for tumor model L1210 Leukemia (intraperitoneal) in B6D2F1 (BDF1) mice
Details: endpoint: mean survival time, higher = longer survival
Method in brief: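 Transplantable tumor model; survival measured in treated vs vehicle control mice. Value = treated/control.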

[1] = dose: 100.0 mg/kg/injection, schedule: Q01DX009 (ip), vehicle: Klucel (hydroxypropylcellulose) (HPC)
[2] = dose: 100.0 mg/kg/injection, schedule: Q04DX003 (ip), vehicle: Klucel (hydroxypropylcellulose) (HPC)
[3] = dose: 200.0 mg/kg/injection, schedule: Q01DX009 (ip), vehicle: Klucel (hydroxypropylcellulose) (HPC)
[4] = dose: 200.0 mg/kg/injection, schedule: Q04DX003 (ip), vehicle: Klucel (hydroxypropylcellulose) (HPC)
[5] = dose: 400.0 mg/kg/injection, schedule: Q04DX003 (ip), vehicle: Klucel (hydroxypropylcellulose) (HPC)
[6] = dose: 50.0 mg/kg/injection, schedule: Q01DX001 (ip), vehicle: carboxymethylcellulose (CMC)
[7] = dose: 100.0 mg/kg/injection, schedule: Q01DX001 (ip), vehicle: carboxymethylcellulose (CMC)
[8] = dose: 100.0 mg/kg/injection, schedule: Q04DX003 (ip), vehicle: saline with Tween-80
[9] = dose: 200.0 mg/kg/injection, schedule: Q01DX001 (ip), vehicle: carboxymethylcellulose (CMC)
[10] = dose: 200.0 mg/kg/injection, schedule: Q04DX003 (ip), vehicle: saline with Tween-80
[11] = dose: 400.0 mg/kg/injection, schedule: Q01DX001 (ip), vehicle: carboxymethylcellulose (CMC)
[12] = dose: 400.0 mg/kg/injection, schedule: Q04DX003 (ip), vehicle: saline with Tween-80
[13] = dose: 100.0 mg/kg/injection, schedule: Q01DX001 (ip), vehicle: saline
[14] = dose: 200.0 mg/kg/injection, schedule: Q01DX001 (ip), vehicle: saline
[15] = dose: 400.0 mg/kg/injection, schedule: Q01DX001 (ip), vehicle: saline
[16] = dose: 400.0 mg/kg/injection, schedule: Q01DX009 (ip), vehicle: Klucel (hydroxypropylcellulose) (HPC)

Measured: T/C

Cc1ccc([N+](=O)[O-])c(O)c1[N+](=O)[O-]
inactive: [1] 104 % of control | [2] 102 % of control | [3] 93 % of control | [4] 89 % of control | [5] 102 % of control

OC(Cc1ccc(-c2ccccc2)cc1)c1ccccc1 (configuration not stated)
inactive: dose: 50.0 mg/kg/injection, schedule: Q01DX001 (ip), vehicle: saline with Tween-80 93 % of control | dose: 100.0 mg/kg/injection, schedule: Q01DX001 (ip), vehicle: saline with Tween-80 91 % of control | dose: 200.0 mg/kg/injection, schedule: Q01DX001 (ip), vehicle: saline with Tween-80 91 % of control

N#C/C(=C1C=C/C(=N/O)C(Cl)=C/1)c1ccc(Cl)cc1
inactive: [6] 96 % of control | [7] 98 % of control | [8] 103 % of control | [9] 93 % of control | [10] 97 % of control | [11] 91 % of control | [12] 97 % of control

CC(Br)(CBr)CCC(C)(Br)CBr (configuration not stated)
inactive: [2] 94 % of control | [4] 96 % of control | [5] 91 % of control

CS(=O)(=O)OC1C2CCC(C2=C(c2ccccc2)c2ccccc2)C1OS(C)(=O)=O (configuration not stated)
inactive: dose: 75.0 mg/kg/injection, schedule: Q01DX001 (ip), vehicle: carboxymethylcellulose (CMC) 93 % of control | dose: 150.0 mg/kg/injection, schedule: Q01DX001 (ip), vehicle: carboxymethylcellulose (CMC) 101 % of control | dose: 300.0 mg/kg/injection, schedule: Q01DX001 (ip), vehicle: carboxymethylcellulose (CMC) 91 % of control

O=C(O)C1CCCCC1C(=O)Nc1cccc(C(F)(F)F)c1 (configuration not stated)
inactive: dose: 12.5 mg/kg/injection, schedule: Q01DX009 (ip), vehicle: saline with Tween-80 102 % of control | dose: 25.0 mg/kg/injection, schedule: Q01DX009 (ip), vehicle: saline with Tween-80 101 % of control | dose: 50.0 mg/kg/injection, schedule: Q01DX009 (ip), vehicle: saline with Tween-80 88 % of control and 92 % of control | [8] 102 % of control | [10] 92 % of control

O=C(O)c1ccc(Cl)o1
inactive: [1] 97 % of control | [3] 98 % of control

COc1ccc(CN2CC(C)N(N)C(C)C2)cc1 (configuration not stated)
inactive: dose: 100.0 mg/kg/injection, schedule: Q01DX005 (ip), vehicle: saline 98 % of control

Cc1ccc(NC(=O)C(F)(F)C(F)(F)C(F)(F)F)cc1
inactive: [13] 89 % of control | [14] 97 % of control | [15] 105 % of control

O=c1oc(-c2cccc(Cl)c2)nc2cc(Cl)ccc12
inactive: [1] 104 % of control | [3] 116 % of control | [16] 115 % of control

OCC1OC(CO)(OC2CC3C(O)CC(O)CC3OC2c2cc(O)c(O)c(O)c2)C(O)C1O (configuration not stated)
inactive: [7] 103 % of control | [9] 93 % of control | [11] 92 % of control

O=S(=O)(Oc1ccc(Br)cc1)C1CC1c1ccccc1 (configuration not stated)
inactive: [13] 106 % of control | [14] 98 % of control | [15] 103 % of control

O=[N+]([O-])c1ccc(/C=N\NC(=S)Nc2ccc3cn[nH]c3c2)cc1
inactive: [6] 91 % of control | [7] 97 % of control | [9] 97 % of control | [11] 105 % of control

Cc1ccc(S(N)(=O)=O)cc1S(N)(=O)=O
inactive: dose: 100.0 mg/kg/injection, schedule: Q01DX001 (ip), vehicle: Klucel (hydroxypropylcellulose) (HPC) 94 % of control | dose: 200.0 mg/kg/injection, schedule: Q01DX001 (ip), vehicle: Klucel (hydroxypropylcellulose) (HPC) 92 % of control | dose: 400.0 mg/kg/injection, schedule: Q01DX001 (ip), vehicle: Klucel (hydroxypropylcellulose) (HPC) 105 % of control

CCCCN=C(N)N=C(N)N
inactive: dose: 5.0 mg/kg/injection, schedule: Q01DX001 (ip), vehicle: saline 107 % of control | dose: 10.0 mg/kg/injection, schedule: Q01DX001 (ip), vehicle: saline 92 % of control | dose: 20.0 mg/kg/injection, schedule: Q01DX001 (ip), vehicle: saline 97 % of control | dose: 40.0 mg/kg/injection, schedule: Q01DX001 (ip), vehicle: saline 102 % of control | dose: 80.0 mg/kg/injection, schedule: Q01DX001 (ip), vehicle: saline 105 % of control | [13] 109 % of control

C1=CC(OC2C=CCC2)CC1 (configuration not stated)
inactive: dose: 25.0 mg/kg/injection, schedule: Q04DX002 (ip), vehicle: saline 89 % of control | dose: 50.0 mg/kg/injection, schedule: Q04DX002 (ip), vehicle: saline 118 % of control | dose: 100.0 mg/kg/injection, schedule: Q04DX002 (ip), vehicle: saline 99 % of control

CC(=O)Oc1c(C(C)(C)C)cc([N+](=O)[O-])c(C)c1[N+](=O)[O-]
inactive: dose: 25.0 mg/kg/injection, schedule: Q04DX002 (ip), vehicle: Klucel (hydroxypropylcellulose) (HPC) 95 % of control | dose: 50.0 mg/kg/injection, schedule: Q04DX002 (ip), vehicle: Klucel (hydroxypropylcellulose) (HPC) 97 % of control

O=C1CCCCC1c1ccccc1 (configuration not stated)
inactive: dose: 50.0 mg/kg/injection, schedule: Q04DX002 (ip), vehicle: other 99 % of control | dose: 100.0 mg/kg/injection, schedule: Q04DX002 (ip), vehicle: other 92 % of control | dose: 100.0 mg/kg/injection, schedule: Q04DX003 (ip), vehicle: other 96 % of control | dose: 200.0 mg/kg/injection, schedule: Q04DX002 (ip), vehicle: other 108 % of control | dose: 200.0 mg/kg/injection, schedule: Q04DX003 (ip), vehicle: other 95 % of control | dose: 400.0 mg/kg/injection, schedule: Q04DX002 (ip), vehicle: other 99 % of control | dose: 400.0 mg/kg/injection, schedule: Q04DX003 (ip), vehicle: other 98 % of control

CC(=O)NNC(=O)c1ccccc1
inactive: dose: 100.0 mg/kg/injection, schedule: Q01DX009 (ip), vehicle: saline with Tween-80 101 % of control | dose: 100.0 mg/kg/injection, schedule: Q01DX009 (ip), vehicle: saline 106 % of control | [8] 106 % of control | dose: 200.0 mg/kg/injection, schedule: Q01DX009 (ip), vehicle: saline with Tween-80 109 % of control | dose: 200.0 mg/kg/injection, schedule: Q01DX009 (ip), vehicle: saline 113 % of control | [10] 108 % of control | [12] 101 % of control

CCN(CC)CCCNc1cc(Cl)c(Cl)cc1[N+](=O)[O-]
inactive: dose: 12.0 mg/kg/injection, schedule: Q01DX009 (ip), vehicle: saline 104 % of control | dose: 25.0 mg/kg/injection, schedule: Q01DX009 (ip), vehicle: saline 95 % of control | dose: 50.0 mg/kg/injection, schedule: Q01DX009 (ip), vehicle: saline 91 % of control | dose: 100.0 mg/kg/injection, schedule: Q04DX003 (ip), vehicle: saline 95 % of control | dose: 200.0 mg/kg/injection, schedule: Q04DX003 (ip), vehicle: saline 90 % of control | dose: 400.0 mg/kg/injection, schedule: Q04DX003 (ip), vehicle: saline 96 % of control

C=CCN(C(=O)C=C)C1CCCCC1
inactive: dose: 50.0 mg/kg/injection, schedule: Q01DX001 (ip), vehicle: saline 98 % of control | [13] 101 % of control

COc1ccc(C(=O)c2ccccc2NC(C)=O)cc1
inactive: [8] 89 % of control | [10] 98 % of control | [12] 94 % of control

CS(=O)(=O)c1ccc(C(O)C(CO)NC(=O)C(Cl)Cl)cc1 (configuration not stated)
inactive: dose: 100.0 mg/kg/injection, schedule: Q04DX002 (ip), vehicle: Klucel (hydroxypropylcellulose) (HPC) 96 % of control | dose: 200.0 mg/kg/injection, schedule: Q04DX002 (ip), vehicle: Klucel (hydroxypropylcellulose) (HPC) 93 % of control | dose: 400.0 mg/kg/injection, schedule: Q04DX002 (ip), vehicle: Klucel (hydroxypropylcellulose) (HPC) 90 % of control

Nc1c(Cl)nc(Cl)nc1C(F)(F)F
inactive: dose: 29.0 mg/kg/injection, schedule: Q01DX Z (ip), vehicle: methylcellulose (MC) 92 % of control | dose: 44.0 mg/kg/injection, schedule: Q01DX Z (ip), vehicle: methylcellulose (MC) 95 % of control

CCc1nc2c(OC)ccc(OC)c2nc1C
inactive: dose: 75.0 mg/kg/injection, schedule: Q01DX001 (ip), vehicle: other 96 % of control | dose: 150.0 mg/kg/injection, schedule: Q01DX001 (ip), vehicle: other 96 % of control

CC(C)=C(Cl)c1c(C)cc(C)c(CC(N)=O)c1C
inactive: [1] 98 % of control | [2] 93 % of control | [3] 105 % of control | [4] 98 % of control | [16] 96 % of control | [5] 98 % of control
